Assay results reported in patent publication US11078201B2, “Substituted isoindolin-1-ones and 2,3-dihydro-1H-pyrrol[3,4-c]pyridin-1-ones as HPK1 antagonists” (Nimbus Saturn, Inc., priority 2019, dated 2021).

Biological target: HPK1 (Homo sapiens (Human), UniProt Q92918)
Assay: HPK1 biochemical enzyme assay (microfluidic mobility shift assay)
Settings: 1.5 nM HPK1, ATP 1 mM final, 60 min at RT, Caliper EZ Reader; read-out: HPK1 1000UMATP caliper IC50
Experimental: HPK1 biochemical enzyme assay: HPK1 enzyme inhibition was measured using a microfluidic mobility shift assay. […] Test compounds were titrated in ten point curves (top final assay concentration […]), and preincubated with enzyme/substrate mix for 30 min prior to initiation of the reaction by addition of ATP (1 mM final concentration) and substrate (1 μM final concentration; Carna Biosciences) diluted in assay buffer supplemented by MgCl2 (final assay concentration of 5 mM). Following 60 min incubation at RT, the reaction was terminated by addition of 60 µl/well termination buffer (Carna Biosciences) and signal determination using a Caliper EZ Reader (Perkin Elmer, UK).
The compound numbers correspond to the compound numbers in Table 1.

Sequence of HPK1 (Q92918 whole entry): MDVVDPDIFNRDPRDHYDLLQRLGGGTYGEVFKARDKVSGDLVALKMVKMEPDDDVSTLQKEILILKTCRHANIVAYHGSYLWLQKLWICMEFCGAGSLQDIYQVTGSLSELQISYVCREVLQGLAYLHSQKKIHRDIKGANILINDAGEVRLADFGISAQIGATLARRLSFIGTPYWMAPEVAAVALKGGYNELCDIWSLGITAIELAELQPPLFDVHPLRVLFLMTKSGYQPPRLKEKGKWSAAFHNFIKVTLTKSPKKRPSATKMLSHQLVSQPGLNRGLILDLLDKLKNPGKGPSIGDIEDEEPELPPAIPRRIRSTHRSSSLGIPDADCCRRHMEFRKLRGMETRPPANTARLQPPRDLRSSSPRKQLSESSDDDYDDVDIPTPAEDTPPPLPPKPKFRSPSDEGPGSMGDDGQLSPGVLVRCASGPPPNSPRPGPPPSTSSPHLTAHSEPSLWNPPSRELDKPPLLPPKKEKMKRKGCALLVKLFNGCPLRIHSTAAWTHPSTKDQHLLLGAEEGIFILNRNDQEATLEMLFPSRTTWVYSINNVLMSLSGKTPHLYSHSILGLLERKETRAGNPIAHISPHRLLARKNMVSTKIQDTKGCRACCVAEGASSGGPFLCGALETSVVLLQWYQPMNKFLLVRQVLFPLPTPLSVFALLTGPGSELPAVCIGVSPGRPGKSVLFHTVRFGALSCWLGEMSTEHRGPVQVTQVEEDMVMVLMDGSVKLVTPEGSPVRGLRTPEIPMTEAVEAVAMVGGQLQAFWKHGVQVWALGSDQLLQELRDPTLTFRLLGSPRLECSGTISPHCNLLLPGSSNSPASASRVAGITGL

Row | Substance | IC50 [nM]
1 | 4-(8-fluoro-7- methyl-imidazo[1,2- a]pyridin-3- yl)-7-[[5- (morpholino- methyl)-2- pyridyl]amino] isoindolin-1-one [I-468] | < 100
2 | 4-[7-(hydroxymeth- yl)imidazo[1,2- a]pyridin-3- yl]-7-[(5- morpholino-2- pyridyl)amino] isoindolin-1-one [I-196] | < 100
